Key:
Assay type in all cases: cell-based
WEE1 = target: T1, WEE1 (Homo sapiens, UniProt P30291+Q96SW2); test: Western-blot assay, substrate protein degradation in hPBMCs: WEE1; conditions: for WEE1 substrate protein remaining %: compounds at 50 nM and 500 nM, 24 hours
T1 construct: effects of the compounds of the present disclosure on the expression of target proteins in cells; endogenous in cells; host or cells: human PBMCs (hPBMCs)

IKZF3 = target: T2, IKZF3 (Homo sapiens, UniProt Q96SW2+Q9UKT9); test: Western-blot assay, substrate protein degradation in hPBMCs: IKZF3; conditions: for IKZF3 substrate protein remaining %: compounds at 50 nM and 500 nM, 24 hours
T2 construct: effects of the compounds of the present disclosure on the expression of target proteins in cells; endogenous in cells; host or cells: human PBMCs (hPBMCs)

GSPT1 = target: T3, GSPT1 (Homo sapiens, UniProt P15170+Q96SW2); test: Western-blot assay, substrate protein degradation in hPBMCs: GSPT1; conditions: for GSPT1 substrate protein remaining %: compounds at 50 nM and 500 nM, 24 hours
T3 construct: effects of the compounds of the present disclosure on the expression of target proteins in cells; endogenous in cells; host or cells: human PBMCs (hPBMCs)

CK1α = target: T4, CK1α (Homo sapiens, UniProt P48729+Q96SW2); test: Western-blot assay, substrate protein degradation in hPBMCs: CK1α; conditions: for CK1α substrate protein remaining %: compounds at 50 nM and 500 nM, 24 hours
T4 construct: effects of the compounds of the present disclosure on the expression of target proteins in cells; endogenous in cells; host or cells: human PBMCs (hPBMCs)

IKZF2 = target: T5, IKZF2 (Homo sapiens, UniProt Q96SW2+Q9UKS7); test: Western-blot assay, substrate protein degradation in hPBMCs: IKZF2; conditions: for IKZF2 substrate protein remaining %: compounds at 50 nM and 500 nM, 24 hours
T5 construct: effects of the compounds of the present disclosure on the expression of target proteins in cells; endogenous in cells; host or cells: human PBMCs (hPBMCs)

IKZF1 = target: T6, IKZF1 (Homo sapiens, UniProt Q13422+Q96SW2); test: Western-blot assay, substrate protein degradation in hPBMCs: IKZF1; conditions: for IKZF1 substrate protein remaining %: compounds at 50 nM and 500 nM, 24 hours
T6 construct: effects of the compounds of the present disclosure on the expression of target proteins in cells; endogenous in cells; host or cells: human PBMCs (hPBMCs)

[1] = 24 hours of compound treatment, 50 nM and 500 nM

T6 sequence (Q13422 whole entry): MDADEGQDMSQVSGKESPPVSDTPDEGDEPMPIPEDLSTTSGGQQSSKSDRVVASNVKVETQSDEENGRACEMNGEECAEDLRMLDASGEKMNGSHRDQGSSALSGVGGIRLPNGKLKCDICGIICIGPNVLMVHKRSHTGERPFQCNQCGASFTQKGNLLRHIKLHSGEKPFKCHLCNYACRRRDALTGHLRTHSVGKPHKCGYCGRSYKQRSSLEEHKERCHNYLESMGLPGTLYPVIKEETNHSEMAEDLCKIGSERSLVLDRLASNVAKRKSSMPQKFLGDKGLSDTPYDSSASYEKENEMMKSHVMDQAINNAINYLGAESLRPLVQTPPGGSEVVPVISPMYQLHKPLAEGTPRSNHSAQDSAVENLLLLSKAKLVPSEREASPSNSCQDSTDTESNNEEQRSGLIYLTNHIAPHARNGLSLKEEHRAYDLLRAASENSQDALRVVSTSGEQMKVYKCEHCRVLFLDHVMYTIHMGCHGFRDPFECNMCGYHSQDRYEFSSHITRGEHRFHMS
T6 sequence (Q96SW2 whole entry): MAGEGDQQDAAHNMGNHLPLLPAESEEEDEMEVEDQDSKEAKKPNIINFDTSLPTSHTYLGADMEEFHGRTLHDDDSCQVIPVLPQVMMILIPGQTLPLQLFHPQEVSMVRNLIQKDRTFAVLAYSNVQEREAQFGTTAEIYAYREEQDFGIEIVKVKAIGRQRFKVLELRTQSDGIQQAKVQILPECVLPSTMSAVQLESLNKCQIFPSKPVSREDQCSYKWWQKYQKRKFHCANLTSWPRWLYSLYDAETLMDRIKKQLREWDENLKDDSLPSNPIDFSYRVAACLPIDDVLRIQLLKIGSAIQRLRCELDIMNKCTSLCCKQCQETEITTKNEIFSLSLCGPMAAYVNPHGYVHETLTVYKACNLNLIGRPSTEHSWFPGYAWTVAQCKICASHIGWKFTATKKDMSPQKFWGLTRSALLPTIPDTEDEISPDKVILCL
T6 sequence (Q16531 whole entry partner): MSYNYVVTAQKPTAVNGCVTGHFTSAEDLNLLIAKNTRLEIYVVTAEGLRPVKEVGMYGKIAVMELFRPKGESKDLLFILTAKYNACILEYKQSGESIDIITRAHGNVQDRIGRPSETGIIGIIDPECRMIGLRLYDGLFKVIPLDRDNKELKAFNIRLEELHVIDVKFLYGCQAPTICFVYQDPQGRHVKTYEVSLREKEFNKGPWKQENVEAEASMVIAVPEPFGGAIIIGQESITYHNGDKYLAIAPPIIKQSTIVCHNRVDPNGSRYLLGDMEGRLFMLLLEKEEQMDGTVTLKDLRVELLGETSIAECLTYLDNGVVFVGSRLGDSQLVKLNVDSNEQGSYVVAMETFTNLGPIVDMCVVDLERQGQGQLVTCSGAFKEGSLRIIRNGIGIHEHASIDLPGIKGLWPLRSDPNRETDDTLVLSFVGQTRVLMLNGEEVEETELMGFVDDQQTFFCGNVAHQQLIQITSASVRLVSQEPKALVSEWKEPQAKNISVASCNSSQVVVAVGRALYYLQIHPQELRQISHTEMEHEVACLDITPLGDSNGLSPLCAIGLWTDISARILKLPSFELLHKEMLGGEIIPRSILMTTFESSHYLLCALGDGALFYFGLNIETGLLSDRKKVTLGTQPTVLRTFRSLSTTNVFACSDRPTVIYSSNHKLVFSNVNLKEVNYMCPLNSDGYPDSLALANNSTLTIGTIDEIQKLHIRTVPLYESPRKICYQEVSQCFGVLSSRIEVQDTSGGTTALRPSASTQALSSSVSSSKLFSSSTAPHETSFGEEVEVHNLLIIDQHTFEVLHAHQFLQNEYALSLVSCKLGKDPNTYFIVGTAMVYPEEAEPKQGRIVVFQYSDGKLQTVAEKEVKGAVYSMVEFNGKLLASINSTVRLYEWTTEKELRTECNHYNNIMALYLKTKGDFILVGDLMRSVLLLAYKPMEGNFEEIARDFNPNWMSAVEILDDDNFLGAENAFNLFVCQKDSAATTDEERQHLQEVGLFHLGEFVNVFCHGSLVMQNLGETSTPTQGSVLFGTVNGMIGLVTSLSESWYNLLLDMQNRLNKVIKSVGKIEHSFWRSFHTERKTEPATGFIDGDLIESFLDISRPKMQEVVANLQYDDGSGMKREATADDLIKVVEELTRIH
T3 sequence (P15170 whole entry): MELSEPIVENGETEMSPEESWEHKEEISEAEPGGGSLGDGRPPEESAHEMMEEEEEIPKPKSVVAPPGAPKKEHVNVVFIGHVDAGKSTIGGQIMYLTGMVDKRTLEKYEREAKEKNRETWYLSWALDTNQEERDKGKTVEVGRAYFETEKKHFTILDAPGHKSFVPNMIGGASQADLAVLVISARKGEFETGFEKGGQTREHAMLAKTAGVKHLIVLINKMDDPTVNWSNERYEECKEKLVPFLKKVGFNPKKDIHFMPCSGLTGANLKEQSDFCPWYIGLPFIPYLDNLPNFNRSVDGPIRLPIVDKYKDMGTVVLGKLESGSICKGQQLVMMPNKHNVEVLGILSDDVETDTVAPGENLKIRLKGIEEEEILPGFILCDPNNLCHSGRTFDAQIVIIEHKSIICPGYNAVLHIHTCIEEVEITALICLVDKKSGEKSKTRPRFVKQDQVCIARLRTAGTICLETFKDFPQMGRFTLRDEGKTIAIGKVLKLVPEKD
T3 sequence (Q96SW2 whole entry): as the sequence (Q96SW2 whole entry) above
T3 sequence (Q16531 whole entry partner): as the sequence (Q16531 whole entry partner) above
T1 sequence (P30291 whole entry): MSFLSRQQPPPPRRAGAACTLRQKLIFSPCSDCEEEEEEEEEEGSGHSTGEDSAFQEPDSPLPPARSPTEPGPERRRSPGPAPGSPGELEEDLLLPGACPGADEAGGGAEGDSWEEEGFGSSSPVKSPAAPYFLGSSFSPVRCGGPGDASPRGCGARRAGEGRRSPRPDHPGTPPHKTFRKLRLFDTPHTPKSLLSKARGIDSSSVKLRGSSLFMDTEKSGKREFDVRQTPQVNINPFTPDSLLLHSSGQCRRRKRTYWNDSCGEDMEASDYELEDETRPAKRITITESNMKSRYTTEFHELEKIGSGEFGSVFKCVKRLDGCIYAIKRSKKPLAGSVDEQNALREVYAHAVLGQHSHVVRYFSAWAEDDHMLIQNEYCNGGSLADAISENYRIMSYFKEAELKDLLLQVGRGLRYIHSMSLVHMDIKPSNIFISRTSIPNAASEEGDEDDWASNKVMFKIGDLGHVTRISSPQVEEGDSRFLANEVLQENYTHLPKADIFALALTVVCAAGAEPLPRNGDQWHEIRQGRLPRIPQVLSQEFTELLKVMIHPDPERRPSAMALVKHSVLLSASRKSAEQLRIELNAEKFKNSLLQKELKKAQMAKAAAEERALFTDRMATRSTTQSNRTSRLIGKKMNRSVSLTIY
T1 sequence (Q96SW2 whole entry): as the sequence (Q96SW2 whole entry) above
T1 sequence (Q16531 whole entry partner): as the sequence (Q16531 whole entry partner) above
T2 sequence (Q9UKT9 whole entry): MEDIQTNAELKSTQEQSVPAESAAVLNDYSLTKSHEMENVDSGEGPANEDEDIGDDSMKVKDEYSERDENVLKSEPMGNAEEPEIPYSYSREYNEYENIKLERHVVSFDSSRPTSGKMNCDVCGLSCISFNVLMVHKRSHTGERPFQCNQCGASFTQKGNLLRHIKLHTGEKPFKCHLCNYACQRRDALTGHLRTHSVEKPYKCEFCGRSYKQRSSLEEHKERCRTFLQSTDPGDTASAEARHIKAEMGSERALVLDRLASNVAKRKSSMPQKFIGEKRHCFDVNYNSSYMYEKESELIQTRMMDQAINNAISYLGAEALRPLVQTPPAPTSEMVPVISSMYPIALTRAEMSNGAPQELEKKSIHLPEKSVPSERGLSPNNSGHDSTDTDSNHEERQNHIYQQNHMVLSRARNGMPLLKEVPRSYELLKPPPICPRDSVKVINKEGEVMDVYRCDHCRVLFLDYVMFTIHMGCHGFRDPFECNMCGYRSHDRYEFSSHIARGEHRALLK
T2 sequence (Q96SW2 whole entry): as the sequence (Q96SW2 whole entry) above
T2 sequence (Q16531 whole entry partner): as the sequence (Q16531 whole entry partner) above
T4 sequence (P48729 whole entry): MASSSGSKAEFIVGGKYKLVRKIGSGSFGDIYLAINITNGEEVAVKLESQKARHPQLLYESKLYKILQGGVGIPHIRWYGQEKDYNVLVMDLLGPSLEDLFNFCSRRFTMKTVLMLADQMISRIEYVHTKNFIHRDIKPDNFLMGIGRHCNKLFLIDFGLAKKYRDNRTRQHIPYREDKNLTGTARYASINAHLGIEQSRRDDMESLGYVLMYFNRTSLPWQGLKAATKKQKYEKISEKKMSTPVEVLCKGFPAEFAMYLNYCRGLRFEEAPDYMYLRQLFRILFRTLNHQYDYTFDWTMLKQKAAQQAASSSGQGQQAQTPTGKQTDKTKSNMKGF
T4 sequence (Q96SW2 whole entry): as the sequence (Q96SW2 whole entry) above
T4 sequence (Q16531 whole entry partner): as the sequence (Q16531 whole entry partner) above

Row | Compound | substrate protein remaining % WEE1 (WEE1; [1]) | substrate protein remaining % IKZF3 (IKZF3; [1]) | substrate protein remaining % GSPT1 (GSPT1; [1]) | substrate protein remaining % CK1α (CK1α; [1]) | substrate protein remaining % IKZF2 (IKZF2; [1]) | substrate protein remaining % IKZF1 (IKZF1; [1]) | WEE1 substrate protein remaining % (WEE1) | IKZF3 substrate protein remaining % (IKZF3) | GSPT1 substrate protein remaining % (GSPT1) | CK1α substrate protein remaining % (CK1α) | IKZF2 substrate protein remaining % (IKZF2) | IKZF1 substrate protein remaining % (IKZF1)
1 | O=C1CCN(N2Cc3cc(CN4CCC(c5c[nH]c6ncccc56)CC4)ccc3C2=O)C(=O)N1 [GT-07576, 1-(5-((4-(1H-pyrrolo[2,3-b]pyridin-3-yl)piperidin-1-yl)methyl)-1-oxoisoindolin-2-yl)dihydropyrimidine-2,4(1H,3H)-dione] | A (0% ≤ substrate protein remaining % ≤ 80%) | B (80%< substrate protein remaining %≤ 100%) | A (0% ≤ substrate protein remaining % ≤ 80%) | A (0% ≤ substrate protein remaining % ≤ 80%) | A (0% ≤ substrate protein remaining % ≤ 80%) | A (0% ≤ substrate protein remaining % ≤ 80%) |  |  |  |  |  | 
2 | Cc1cccc(N2CCN(Cc3ccc4c(c3)C(=O)N(N3CCC(=O)NC3=O)C4=O)CC2)n1 [GT-05352, 2-(2,4-dioxotetrahydropyrimidin-1(2H)-yl)-5-((4-(6-methylpyridin-2-yl)piperazin-1-yl)methyl)isoindoline-1,3-dione] |  |  |  |  |  |  | B ("B" is defined as 80%< substrate protein remaining %≤ 100%) | B ("B" is defined as 80%< substrate protein remaining %≤ 100%) | A ("A" is defined as 0% ≤ substrate protein remaining % ≤ 80%) | B ("B" is defined as 80%< substrate protein remaining %≤ 100%) | A ("A" is defined as 0% ≤ substrate protein remaining % ≤ 80%) | B ("B" is defined as 80%< substrate protein remaining %≤ 100%)
3 | O=C1CCN(N2C(=O)c3ccc(CN4CCN(c5ccc(F)cc5)CC4)cc3C2=O)C(=O)N1 [GT-06725, 2-(2,4-dioxotetrahydropyrimidin-1(2H)-yl)-5-((4-(4-fluorophenyl)piperazin-1-yl)methyl)isoindoline-1,3-dione] |  |  |  |  |  |  | B ("B" is defined as 80%< substrate protein remaining %≤ 100%) | B ("B" is defined as 80%< substrate protein remaining %≤ 100%) | B ("B" is defined as 80%< substrate protein remaining %≤ 100%) | B ("B" is defined as 80%< substrate protein remaining %≤ 100%) | B ("B" is defined as 80%< substrate protein remaining %≤ 100%) | A ("A" is defined as 0% ≤ substrate protein remaining % ≤ 80%)
4 | O=C1CCN(N2C(=O)c3ccc(CN4CCN(c5cccc(Cl)c5Cl)CC4)cc3C2=O)C(=O)N1 [GT-04854, 5-((4-(2,3-dichlorophenyl)piperazin-1-yl)methyl)-2-(2,4-dioxotetrahydropyrimidin-1(2H)-yl)isoindoline-1,3-dione] |  |  |  |  |  |  | A ("A" is defined as 0% ≤ substrate protein remaining % ≤ 80%) | B ("B" is defined as 80%< substrate protein remaining %≤ 100%) | A ("A" is defined as 0% ≤ substrate protein remaining % ≤ 80%) | B ("B" is defined as 80%< substrate protein remaining %≤ 100%) | A ("A" is defined as 0% ≤ substrate protein remaining % ≤ 80%) | A ("A" is defined as 0% ≤ substrate protein remaining % ≤ 80%)
5 | O=C1CCN(N2Cc3cc(CN4CC=C(c5cncc(Cl)c5)CC4)ccc3C2=O)C(=O)N1 [GT-06394, 1-(5-((5-chloro-3',6'-dihydro-[3,4'-bipyridin]-1'(2'H)-yl)methyl)-1-oxoisoindolin-2-yl)dihydropyrimidine-2,4(1H,3H)-dione] |  |  |  |  |  |  | B ("B" is defined as 80%< substrate protein remaining %≤ 100%) | B ("B" is defined as 80%< substrate protein remaining %≤ 100%) | A ("A" is defined as 0% ≤ substrate protein remaining % ≤ 80%) | A ("A" is defined as 0% ≤ substrate protein remaining % ≤ 80%) | A ("A" is defined as 0% ≤ substrate protein remaining % ≤ 80%) | B ("B" is defined as 80%< substrate protein remaining %≤ 100%)
6 | Cc1ccc(N2CCN(Cc3ccc4c(c3)C(=O)N(N3CCC(=O)NC3=O)C4=O)CC2)s1 [GT-05309, 2-(2,4-dioxotetrahydropyrimidin-1(2H)-yl)-5-((4-(5-methylthiophen-2-yl)piperazin-1-yl)methyl)isoindoline-1,3-dione] |  |  |  |  |  |  | B ("B" is defined as 80%< substrate protein remaining %≤ 100%) | B ("B" is defined as 80%< substrate protein remaining %≤ 100%) | A ("A" is defined as 0% ≤ substrate protein remaining % ≤ 80%) | B ("B" is defined as 80%< substrate protein remaining %≤ 100%) | B ("B" is defined as 80%< substrate protein remaining %≤ 100%) | B ("B" is defined as 80%< substrate protein remaining %≤ 100%)
7 | O=C1CCN(N2Cc3cc(CN4CCN(C(c5ccc(Cl)cc5)c5ccc(Cl)cc5)CC4)ccc3C2=O)C(=O)N1 [GT-04895, 1-(5-((4-(bis(4-chlorophenyl)methyl)piperazin-1-yl)methyl)-1-oxoisoindolin-2-yl)dihydropyrimidine-2,4(1H,3H)-dione] |  |  |  |  |  |  | B ("B" is defined as 80%< substrate protein remaining %≤ 100%) | B ("B" is defined as 80%< substrate protein remaining %≤ 100%) | A ("A" is defined as 0% ≤ substrate protein remaining % ≤ 80%) | B ("B" is defined as 80%< substrate protein remaining %≤ 100%) | A ("A" is defined as 0% ≤ substrate protein remaining % ≤ 80%) | A ("A" is defined as 0% ≤ substrate protein remaining % ≤ 80%)
8 | O=C1CCN(N2Cc3cc(CN4C5CCC4CN(C(c4ccccc4)c4ccccc4)C5)ccc3C2=O)C(=O)N1 [GT-06454, 1-(5-((3-benzhydryl-3,8-diazabicyclo[3.2.1]octan-8-yl)methyl)-1-oxoisoindolin-2-yl)dihydropyrimidine-2,4(1H,3H)-dione] |  |  |  |  |  |  | A ("A" is defined as 0% ≤ substrate protein remaining % ≤ 80%) | B ("B" is defined as 80%< substrate protein remaining %≤ 100%) | B ("B" is defined as 80%< substrate protein remaining %≤ 100%) | B ("B" is defined as 80%< substrate protein remaining %≤ 100%) | B ("B" is defined as 80%< substrate protein remaining %≤ 100%) | B ("B" is defined as 80%< substrate protein remaining %≤ 100%)
9 | O=C1CCN(N2C(=O)c3ccc(CN4CC=C(c5c[nH]c6ncccc56)CC4)cc3C2=O)C(=O)N1 [GT-05181, 5-((4-(1H-pyrrolo[2,3-b]pyridin-3-yl)-3,6-dihydropyridin-1(2H)-yl)methyl)-2-(2,4-dioxotetrahydropyrimidin-1(2H)-yl)isoindoline-1,3-dione] |  |  |  |  |  |  | A ("A" is defined as 0% ≤ substrate protein remaining % ≤ 80%) | B ("B" is defined as 80%< substrate protein remaining %≤ 100%) | B ("B" is defined as 80%< substrate protein remaining %≤ 100%) | B ("B" is defined as 80%< substrate protein remaining %≤ 100%) | B ("B" is defined as 80%< substrate protein remaining %≤ 100%) | B ("B" is defined as 80%< substrate protein remaining %≤ 100%)
10 | CC1(C)CCC(CN2CCN(Cc3ccc4c(c3)C(=O)N(N3CCC(=O)NC3=O)C4=O)CC2)=C(c2ccc(Cl)cc2)C1 [GT-05180, 5-((4-((4'-chloro-5,5-dimethyl-3,4,5,6-tetrahydro-[1,1'-biphenyl]-2-yl)methyl)piperazin-1-yl)methyl)-2-(2,4-dioxotetrahydropyrimidin-1(2H)-yl)isoindoline-1,3-dione] |  |  |  |  |  |  | A ("A" is defined as 0% ≤ substrate protein remaining % ≤ 80%) | B ("B" is defined as 80%< substrate protein remaining %≤ 100%) | B ("B" is defined as 80%< substrate protein remaining %≤ 100%) | B ("B" is defined as 80%< substrate protein remaining %≤ 100%) | B ("B" is defined as 80%< substrate protein remaining %≤ 100%) | B ("B" is defined as 80%< substrate protein remaining %≤ 100%)
